Measured values published in patent publication US20140243350A1, “USE OF SEROTONIN RECEPTOR AGONISTS FOR TREATMENT OF MOVEMENT DISORDERS” (CONTERA PHARMA APS, priority 2011, published 2014).
Read-outs that look alike come from different tables or passages of the source.

How the values were obtained:
[1] = tested on: unilaterally 6-OHDA-lesioned rats; conditions: buspirone alone 0.5 mg/kg i.p.
Description: 6-OHDA (6-hydroxydopamine) is a neurotoxin that selectively kills dopaminergic and noradrenergic neurons and induces a reduction of dopamine levels in the brain. […] These are axial, limb and oral movements that occur only on the body side that is […] to the lesion.
In the mild cases: lateral flexion of the neck or torsional movements of the upper trunk towards the side contralateral to the lesion. With repeated injection of L-DOPA, this movement may develop into a pronounced and continuous dystonia-like axial torsion. […] In mild cases: hyperkinetic, jerky stepping movements of the forelimb contralateral to the lesion, or small circular movements of the forelimb to and from the snout.

[2] = tested on: patients treated with neuroleptics; conditions: open study, relative high doses; cited from earlier work
LID model rats = conditions: buspirone alone 0.2 mg/kg s.c., 11 min before AIM test; FIG. 8A
naïve rats = conditions: retigabine alone 10 mg/kg i.p.; for total move distance (locomotor activity) in open field test: FIG. 6; for total velocity (locomotor activity) in open field test: FIG. 7; for locomotor activity (moving distance and velocity) in open field test: FIGS. 6 and 7
Protocol: Species: 60 Sprague-Dawley male rats (180-220 g, bred in house, originally from SLAC Labortory Animal Co. Ltd) at 9-week of age.
Administration and dose regimen for the groups of animals (each comprising 10 rats):
Vehicle: 10% Tween 80, i.p., 30 min before test, n=10. Buspirone 1: Buspirone (From Sigma, Cat. No. B7148, Lot. No. 042K1763Z) 1 mg/kg, i.p. 30 min before test, n=10. Buspirone 2: Buspirone 2 mg/kg, i.p. 30 min before test, n=10.
Rats were put in open-field chambers (dimensions 40 cm×40 cm×40 cm) 30 minutes after dosing. After a 15 minutes habituation, locomotion were recorded and analyzed by Enthovision Video Tracking Software (Noldus Information Technology, Netherlands) for 60 minutes. All locomotor activities were done during dark phase and to eliminate olfactory cues, the arena was thoroughly cleaned with 70% v/v ethanol between each test.
Data statistics: The total locomotor activity is expressed as total moved distance (cm) and average velocity (cm/s) every 10 minutes during 60 minutes. The data were analyzed using One-Way ANOVA and the Tukey post-hoc test. The locomotor activity in six time point is expressed as moved distance (cm) and average velocity (cm/s) every 10 minutes. The data were analyzed using One-Way ANOVA and the Tukey post-hoc test in each time point.

Compound	abnormal involuntary movements (AIM), sum of Lo, Ax, Li and Ol scores per testing session, time course ([1]; FIG. 1, vs vehicle)	AUC (20-60 min) of total AIM (Lo+Ax+Li+Ol) ([1]; FIG. 2)	AUC (20-60 min) of locomotive limb (Li) AIM scores ([1]; FIG. 3)	AUC (20-60 min) of locomotive Axial (Ax) AIM scores ([1]; FIG. 4)	AUC (20-60 min) of Orolingual (OL) AIM scores ([1]; FIG. 5)	effects on tardive dyskinesia, Parkinsonism and akathisia [2]	AUC (10-190 min) of total AIM (Lo+Ax+Li+Ol) (LID model rats)	total move distance (locomotor activity) in open field test (naïve rats; after 20 to 60 minutes)	total velocity (locomotor activity) in open field test (naïve rats; after 20 to 60 minutes)	total velocity (locomotor activity) in open field test (naïve rats; after 10 minutes, vs vehicle)	locomotor activity (moving distance and velocity) in open field test (naïve rats; after 20 mins)	locomotor activity (moving distance and velocity) in open field test (naïve rats; initially (after 10 min))	total move distance (locomotor activity) in open field test (naïve rats; initially, vs vehicle)
O=C1CC2(CCCC2)CC(=O)N1CCCCN1CCN(c2ncccn2)CC1 [buspirone, 8-[4-(4-pyrimidin-2-ylpiperazin-1-yl)butyl]-8-azaspiro[4.5]decane-7,9-dione]	partially reduced	partially reduced	did not have an effect	partially reduced	significantly reduced	has effects	small effect						
CCOC(=O)Nc1ccc(NCc2ccc(F)cc2)cc1N [retigabine, N-(2-amino-4-(4-fluorobenzylamino)-phenylcarbamic acid) ethyl ester]								no significant differences	no significant differences	significantly inhibit	no significant difference	significantly inhibit	significantly inhibit
